{"source": "paper PMC11882969", "about": "(Nature Communications, 2025)", "key": {"[1]": {"target": "hCB1 (Homo sapiens, UniProt P21554)", "sequence (P21554 whole entry)": "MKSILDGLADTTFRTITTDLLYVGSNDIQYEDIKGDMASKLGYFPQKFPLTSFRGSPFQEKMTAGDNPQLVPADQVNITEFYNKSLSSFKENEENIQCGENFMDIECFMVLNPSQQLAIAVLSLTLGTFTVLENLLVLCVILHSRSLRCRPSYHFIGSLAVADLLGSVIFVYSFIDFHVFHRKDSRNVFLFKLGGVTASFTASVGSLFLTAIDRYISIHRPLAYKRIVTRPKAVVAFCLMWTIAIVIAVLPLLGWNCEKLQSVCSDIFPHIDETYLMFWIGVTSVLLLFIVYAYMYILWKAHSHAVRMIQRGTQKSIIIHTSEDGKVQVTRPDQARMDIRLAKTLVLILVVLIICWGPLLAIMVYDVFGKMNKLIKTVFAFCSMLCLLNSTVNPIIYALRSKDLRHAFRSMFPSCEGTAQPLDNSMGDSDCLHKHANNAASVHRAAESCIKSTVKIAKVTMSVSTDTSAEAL", "experiment": "bioSensAll ebBRET signaling profiling, hCB1", "format": "cell-based", "set-up": "host or cells: HEK293SL cells, transient PEI transfection", "conditions": "for Gi1 hCB1 response: Gi1 biosensor; for Gi1 hCB1 / GoB hCB1: single replicate values, FigS6a"}, "[2]": {"target": "CB1 (rCB1) (Rattus norvegicus, UniProt P20272)", "sequence (P20272 whole entry)": "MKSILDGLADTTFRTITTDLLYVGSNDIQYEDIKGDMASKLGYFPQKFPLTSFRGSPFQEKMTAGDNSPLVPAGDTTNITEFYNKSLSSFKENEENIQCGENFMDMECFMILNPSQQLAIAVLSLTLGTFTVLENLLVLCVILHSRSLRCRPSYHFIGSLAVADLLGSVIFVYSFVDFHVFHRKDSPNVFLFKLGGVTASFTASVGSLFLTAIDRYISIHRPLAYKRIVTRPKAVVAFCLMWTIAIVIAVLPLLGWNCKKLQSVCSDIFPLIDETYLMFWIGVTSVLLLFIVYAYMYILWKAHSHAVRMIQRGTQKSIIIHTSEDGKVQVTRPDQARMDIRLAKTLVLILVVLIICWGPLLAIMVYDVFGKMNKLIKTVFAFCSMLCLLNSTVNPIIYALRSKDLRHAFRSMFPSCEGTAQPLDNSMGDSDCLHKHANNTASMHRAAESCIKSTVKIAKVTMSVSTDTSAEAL", "experiment": "Radioligand competition binding, [3H]-CP-55,940, rat brain membranes"}}, "note": "Several values for one entry are separate records, joined by “and”; a condition that tells them apart may be missing. Equal entries are not always repeated.", "data": [{"compound": "Cc1cc(C(=O)N(C)C(c2ccccc2)c2ccco2)nn1-c1cccc(C(F)(F)F)c1", "note": "(centres unmarked) [‘1082]", "values": [{"measurement": "Gi1 hCB1 response", "setting": "[1]; Log [Compound] (M) -4.22186", "value": -35.0608}, {"measurement": "Gi1 hCB1 response", "setting": "[1]; Log [Compound] (M) -4.63927", "value": -33.606}, {"measurement": "Gi1 hCB1 response", "setting": "[1]; Log [Compound] (M) -5.05788", "value": 18.2518}, {"measurement": "Gi1 hCB1 response", "setting": "[1]; Log [Compound] (M) -5.47381", "value": -3.66}, {"measurement": "Gi1 hCB1 response", "setting": "[1]; Log [Compound] (M) -5.89285", "value": 5.159}, {"measurement": "Gi1 hCB1 response", "setting": "[1]; Log [Compound] (M) -6.31878", "value": -15.9695}, {"measurement": "Gi1 hCB1 response", "setting": "[1]; Log [Compound] (M) -6.72585", "value": 12.7459}, {"measurement": "Gi1 hCB1 response", "setting": "[1]; Log [Compound] (M) -7.14267", "value": 12.0521}, {"measurement": "Gi1 hCB1 response", "setting": "[1]; Log [Compound] (M) -7.55284", "value": 14.8945}, {"measurement": "Gi1 hCB1 response", "setting": "[1]; Log [Compound] (M) -8", "value": -25.6382}, {"measurement": "Gi1 hCB1 response", "setting": "[1]; Log [Compound] (M) -8.22186", "value": 0.1228}, {"measurement": "Gi1 hCB1 response", "setting": "[1]; Log [Compound] (M) -8.39794", "value": -3.727}, {"measurement": "Gi1 hCB1 response", "setting": "[1]; Log [Compound] (M) -8.68787", "value": -1.824}, {"measurement": "Gi1 hCB1 response", "setting": "[1]; Log [Compound] (M) -9.15521", "value": 3.279}, {"measurement": "Gi1 hCB1 response", "setting": "[1]; Log [Compound] (M) -9.61989", "value": -3.167}, {"measurement": "Gi1 hCB1 response", "setting": "[1]; Log [Compound] (M) -10.0969", "value": -2.16}, {"measurement": "Gi1 hCB1 response", "setting": "[1]; Log [Compound] (M) -10.5529", "value": 5.92}, {"measurement": "Gi1 hCB1 response", "setting": "[1]; Log [Compound] (M) -11.0177", "value": -6.256}, {"measurement": "Gi1 hCB1 response", "setting": "[1]; Log [Compound] (M) -11.4949", "value": -0.9291}, {"measurement": "Gi1 hCB1 response", "setting": "[1]; Log [Compound] (M) -11.9208", "value": -13.4627}, {"measurement": "Gi1 hCB1 response", "setting": "[1]; Log [Compound] (M) -12.3979", "value": -16.5961}, {"measurement": "Gi1 hCB1 response", "setting": "[1]; Log [Compound] (M) -12.8861", "value": 7.553}, {"measurement": "Gi1 hCB1 response", "setting": "[1]; Log [Compound] (M) -13, individual replicate values", "value": "-19.5729 and -62.4781"}, {"measurement": "Gi1 hCB1", "setting": "[1]; Log [Compound] (M) -4.22186", "value": -9.361}, {"measurement": "GoB hCB1", "setting": "[1]; Log [Compound] (M) -4.22186", "value": -31.4993}, {"measurement": "Gi1 hCB1", "setting": "[1]; Log [Compound] (M) -4.63927", "value": -10.6872}, {"measurement": "GoB hCB1", "setting": "[1]; Log [Compound] (M) -4.63927", "value": -34.2867}, {"measurement": "Gi1 hCB1", "setting": "[1]; Log [Compound] (M) -5.05788", "value": -11.9051}, {"measurement": "GoB hCB1", "setting": "[1]; Log [Compound] (M) -5.05788", "value": -28.1184}, {"measurement": "Gi1 hCB1", "setting": "[1]; Log [Compound] (M) -5.47381", "value": -11.4426}, {"measurement": "GoB hCB1", "setting": "[1]; Log [Compound] (M) -5.47381", "value": -23.1191}, {"measurement": "Gi1 hCB1", "setting": "[1]; Log [Compound] (M) -5.89285", "value": -8.945}, {"measurement": "GoB hCB1", "setting": "[1]; Log [Compound] (M) -5.89285", "value": -20.2417}, {"measurement": "Gi1 hCB1", "setting": "[1]; Log [Compound] (M) -6.31878", "value": -6.247}, {"measurement": "GoB hCB1", "setting": "[1]; Log [Compound] (M) -6.31878", "value": -13.1203}, {"measurement": "Gi1 hCB1", "setting": "[1]; Log [Compound] (M) -6.72585", "value": -1.113}, {"measurement": "GoB hCB1", "setting": "[1]; Log [Compound] (M) -6.72585", "value": -7.186}, {"measurement": "Gi1 hCB1", "setting": "[1]; Log [Compound] (M) -7.14267", "value": -0.5276}, {"measurement": "GoB hCB1", "setting": "[1]; Log [Compound] (M) -7.14267", "value": -1.323}, {"measurement": "Gi1 hCB1", "setting": "[1]; Log [Compound] (M) -7.55284", "value": 1.23}, {"measurement": "GoB hCB1", "setting": "[1]; Log [Compound] (M) -7.55284", "value": 0.2953}, {"measurement": "Gi1 hCB1", "setting": "[1]; Log [Compound] (M) -8", "value": 1.677}, {"measurement": "GoB hCB1", "setting": "[1]; Log [Compound] (M) -8", "value": -4.362}, {"measurement": "Gi1 hCB1", "setting": "[1]; Log [Compound] (M) -8.22186", "value": 1.6461}, {"measurement": "GoB hCB1", "setting": "[1]; Log [Compound] (M) -8.22186", "value": -2.654}, {"measurement": "Gi1 hCB1", "setting": "[1]; Log [Compound] (M) -8.39794", "value": 0.5515}, {"measurement": "GoB hCB1", "setting": "[1]; Log [Compound] (M) -8.39794", "value": -2.906}, {"measurement": "Gi1 hCB1", "setting": "[1]; Log [Compound] (M) -8.68787", "value": 1.245}, {"measurement": "GoB hCB1", "setting": "[1]; Log [Compound] (M) -8.68787", "value": -4.668}, {"measurement": "Gi1 hCB1", "setting": "[1]; Log [Compound] (M) -9.15521", "value": 1.045}, {"measurement": "GoB hCB1", "setting": "[1]; Log [Compound] (M) -9.15521", "value": -5.747}, {"measurement": "Gi1 hCB1", "setting": "[1]; Log [Compound] (M) -9.61989", "value": -0.04972}, {"measurement": "GoB hCB1", "setting": "[1]; Log [Compound] (M) -9.61989", "value": -2.816}, {"measurement": "Gi1 hCB1", "setting": "[1]; Log [Compound] (M) -10.0969", "value": 2.864}, {"measurement": "GoB hCB1", "setting": "[1]; Log [Compound] (M) -10.0969", "value": -1.485}, {"measurement": "Gi1 hCB1", "setting": "[1]; Log [Compound] (M) -10.5529", "value": 1.384}, {"measurement": "GoB hCB1", "setting": "[1]; Log [Compound] (M) -10.5529", "value": -2.978}, {"measurement": "Gi1 hCB1", "setting": "[1]; Log [Compound] (M) -11.0177", "value": -0.3581}, {"measurement": "GoB hCB1", "setting": "[1]; Log [Compound] (M) -11.0177", "value": 1.41}, {"measurement": "Gi1 hCB1", "setting": "[1]; Log [Compound] (M) -11.4949", "value": 1.415}, {"measurement": "GoB hCB1", "setting": "[1]; Log [Compound] (M) -11.4949", "value": -0.7478}, {"measurement": "Gi1 hCB1", "setting": "[1]; Log [Compound] (M) -11.9208", "value": 2.802}, {"measurement": "GoB hCB1", "setting": "[1]; Log [Compound] (M) -11.9208", "value": 0.3312}, {"measurement": "Gi1 hCB1", "setting": "[1]; Log [Compound] (M) -12.3979", "value": 0.1044}, {"measurement": "GoB hCB1", "setting": "[1]; Log [Compound] (M) -12.3979", "value": -0.9456}, {"measurement": "Gi1 hCB1", "setting": "[1]; Log [Compound] (M) -12.8861", "value": -0.6818}, {"measurement": "GoB hCB1", "setting": "[1]; Log [Compound] (M) -12.8861", "value": 1.626}, {"measurement": "Gi1 hCB1", "setting": "[1]; Log [Compound] (M) -13", "value": "2.001 and 0.07361"}, {"measurement": "GoB hCB1", "setting": "[1]; Log [Compound] (M) -13", "value": "1.176 and -0.1363"}, {"measurement": "pKi [95% CI]", "setting": "[2]; rCB1", "value": "6.1 [5.8 – 6.3]"}, {"measurement": "Ki", "setting": "[2]; read-out: Ki [95% CI], rCB1, [3H]-CP-55,940", "value": 850, "unit": "nM"}]}]}
